Reference: patent publication US20150031655A1, “COMBINATION OF LIVER X RECEPTOR MODULATOR AND ESTROGEN RECEPTOR MODULATOR FOR THE TREATMENT OF AGE-RELATED DISEASES” (UNIVERSITY OF NORTH DAKOTA, priority 2011, published 2015)

Tests used:
α-synuclein mRNA = assay: Real time RT-PCR of α-synuclein mRNA in SH-SY5Y cells; assay type: cell-based, human; conditions: for 27-OHC-induced increase in α-synuclein mRNA: co-treatment with 10 μM 27-OHC; for increase in α-synuclein mRNA expression: 24 h
Method: (§1) Human neuroblastoma SH-SY5Y cells were grown in DMEM/F12 medium containing 10% fetal bovine serum (FBS) and 1% antibiotic/antimycotic mix. Cells were maintained at 37° C. in a saturated humidity atmosphere containing 95% air and 5% CO2.
Total RNA was isolated and extracted from treated cells using the 5 prime “PerfectPure RNA tissue kit” (5 Prime, Inc., Gaithersburg, Md.). RNA estimation was performed using “Quant-iT RNA Assay Kit” using a Qubit fluorometer according to the manufacturer's protocol (Invitrogen, Carlsbad, Calif.). cDNA was synthesized by reverse transcribing 1 μg of extracted RNA using an “iScript cDNA synthesis kit” (BioRad, Hercules, Calif.). The oligomeric primers (Sigma, St Louis, Mo.) used to amplify the TH mRNA and α-synuclein mRNA are enumerated in Table 1. The cDNA amplification was performed using an iQ SYBR Green Supermix kit following the manufacturer's instructions (BioRad, Hercules, Calif.). The amplification was performed using an iCycler iQ Multicolor Real Time PCR Detection System (BioRad, Hercules, Calif.). The expression of specific TH and α-synuclein transcripts amplified were normalized to the expression of glyceraldehyde-3-phosphate dehydrogenase (GAPDH).

TH = assay: Western blot of TH protein levels in SH-SY5Y neuroblastoma cells; assay type: cell-based, human; conditions: for TH protein levels / TH expression: 24 h, treatment alone vs control (10 μM 27-OHC, 1 nM estradiol, 10 μM GW3965, 10 μM ECHS)
Method: as §1
(§2) Treated SH-SY5Y cells were washed with PBS and trypsinized to collect the cells and centrifuged at 5000 g. The pellet was washed again with PBS and homogenized in NE-PER tissue protein extraction reagent (Thermo Scientific, Rockford, Ill.) supplemented with protease and phosphatase inhibitors. Protein concentrations from the cytosolic and nuclear homogenates were determined with BCA protein assay.
(§3) Proteins (10 μg) were separated on SDS-PAGE gels, transferred to a polyvinylidene difluoride membrane (BioRad, Hercules, Calif.), and incubated with the following monoclonal antibodies: anti-TH mouse antibody (1:1000; Sigma Aldrich, Saint Louis, Mo.), anti-α-synuclein mouse antibody (1:500; Chemicon, Temecula, Calif.), anti-ERα rabbit antibody (1:500; Abcam, Cambridge, Mass.), anti-ERβ rabbit antibody (1:200; Upstate, Lake Placid, N.Y.), anti-LXRα rabbit antibody (1:500; Abcam, Cambridge, Mass.), anti-LXRβ mouse antibody (1:500; Abcam, Cambridge, Mass.).
(§4) β-actin and Lamin A were used as a gel loading control for cytosolic homogenates and nuclear homogenates respectively. The blots were developed with enhanced chemiluminescence (Immmun-star HRP chemiluminescent kit, Bio-Rad, Hercules, Calif.). Bands were visualized on a polyvinylidene difluoride membrane and analyzed by LabWorks 4.5 software on a UVP Bioimaging System (Upland, Calif.). Quantification of results was performed by densitometry and the results analyzed as total integrated densitometric values (arbitrary units).

LXRα = target: T1, LXRα (Homo sapiens, UniProt Q13133); assay: Western blot of LXRα levels in the nucleus, SH-SY5Y cells; assay type: cell-based; conditions: for LXRα protein levels in the nucleus: 24 h, treatment alone vs control; for 27-OHC-induced increase in LXRα in the nucleus: co-treatment with 10 μM 27-OHC
T1 construct: endogenous in cells; host or cells: SH-SY5Y human neuroblastoma cells
T1 sequence (Q13133 1-447): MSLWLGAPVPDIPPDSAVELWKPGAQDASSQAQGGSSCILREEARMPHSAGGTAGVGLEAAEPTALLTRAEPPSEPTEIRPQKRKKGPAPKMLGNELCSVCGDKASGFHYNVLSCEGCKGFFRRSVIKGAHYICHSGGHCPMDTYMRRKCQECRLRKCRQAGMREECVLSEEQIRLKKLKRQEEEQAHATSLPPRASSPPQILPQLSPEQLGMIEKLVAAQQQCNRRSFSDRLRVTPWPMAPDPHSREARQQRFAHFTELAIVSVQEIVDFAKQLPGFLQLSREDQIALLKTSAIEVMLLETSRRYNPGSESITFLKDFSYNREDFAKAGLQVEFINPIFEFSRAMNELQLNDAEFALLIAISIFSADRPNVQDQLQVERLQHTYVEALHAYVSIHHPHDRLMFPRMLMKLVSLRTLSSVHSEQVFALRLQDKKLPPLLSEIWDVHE
Method: as §1, §2, §3, §4

α-synuclein = assay: Western blot of α-synuclein protein levels in SH-SY5Y cells; assay type: cell-based, human; conditions: for 27-OHC-induced increase in α-synuclein protein levels / increase in α-synuclein protein / expression levels: 24 h; for 27-OHC-induced increase in α-synuclein protein levels: co-treatment with 10 μM 27-OHC
Method: as §1, §2, §3, §4

| SMILES | 27-OHC-induced increase in α-synuclein mRNA (α-synuclein mRNA) | α-synuclein mRNA levels (α-synuclein mRNA; treatment alone vs control) | TH protein levels / TH expression (TH) | effect of estradiol on 27-OHC-induced decrease in TH expression (TH; ECHS added to 27-OHC+estradiol) | TH expression (TH; in combination with estradiol) | LXRα protein levels in the nucleus (LXRα) | 27-OHC-induced increase in LXRα in the nucleus (LXRα) | 27-OHC-induced increase in α-synuclein protein levels (α-synuclein) | basal α-synuclein expression levels (α-synuclein; treatment alone vs control) | increase in α-synuclein mRNA expression (α-synuclein mRNA; treatment alone vs control) | increase in α-synuclein protein / expression levels (α-synuclein; treatment alone vs control) |
| --- | --- | --- | --- | --- | --- | --- | --- | --- | --- | --- | --- |
| CC(C)CCC[C@@H](C)[C@H]1CC[C@H]2[C@@H]3C[C@@H]4O[C@@]45C[C@@H](OS(=O)(=O)O)CC[C@]5(C)[C@H]3CC[C@]12C [ECHS, 5α,6α-epoxycholesterol-3-sulfate] | marked attenuation | no effect | no effect | does not alter | no effect | reduced | significantly attenuated | significantly attenuated | does not produce any effect |  |  |
| C[C@@H](CO)CCC[C@@H](C)[C@H]1CC[C@H]2[C@@H]3CC=C4C[C@@H](O)CC[C@]4(C)[C@H]3CC[C@]12C [27-OHC, 27-hydroxycholesterol] |  |  | significant decrease |  |  | increases |  |  |  | 9 fold | 2.3 fold |
| Cl.O=C(O)Cc1cccc(OCCCN(Cc2cccc(C(F)(F)F)c2Cl)CC(c2ccccc2)c2ccccc2)c1 [GW3965, 3-[3-[N-(2-Chloro-3-trifluoromethylbenzyl)-(2,2-diphenylethyl)amino]propyloxy]phenylacetic acid hydrochloride] | not mRNA levels |  | no effect |  |  | more pronounced increase | to the same extent | accentuates |  | 10 fold | 3 fold |
